# According to patent publication US20060160070A1, “Association-based epitome design” (Microsoft Corporation, priority 2004, published 2006):
# Experiments:
# [1] = biological target: T1, HLA A*0101 (Homo sapiens, UniProt P04439, A114D/A174V/A182V/D101N/D185E/E176A/E190D/L180R/Q94H/R68K/S129P/T187R/V100A/V91M/W191G); assay: ITOPIA peptide binding assay; conditions: 1.11×10^−4M of peptide
# T1 construct: purchased
# Protocol: (§1) Peptide binding, off-rate and affinity were measured according to the protocols described in the ITOPIA Epitope Discovery System Customer Guide. To conduct the experiments, ninety-six (96) micro-titer plates coated with MHC molecules representing the HLA alleles listed in Table 9 were used to identify candidate peptides. Determinations were performed in duplicate using an ELISA plate reader. The peptide binding assay used measures the ability of individual peptides to bind to the HLA molecules under standardized optimal binding conditions. The assay was performed for all the test peptides across the selected HLA alleles. The test peptides identified as “binders” were characterized further in terms of affinity and dissociation experiments. The off-rate assay used evaluates the dissociation of previously bound peptide at defined time points (expressed as the t1/2 value). The affinity assay used measures the relative binding affinities for the MHC molecules determined by incubating candidate peptides identified in the initial peptide binding assay at increasing concentrations (expressed as quantity of peptide needed to achieve 50% binding or ED50 value).
# (§2) The binding of the test peptides (Table 8) to the HLA molecules (Table 9) was performed at a concentration of 1.11×10^−4M of peptide under optimal, standardized test conditions. A control peptide was run in parallel on the same plate and at the same concentration as the test peptides. […] The level of binding is expressed as a percent of positive control peptide binding for each allele.
# [2] = biological target: T2, HLA A*1101 (Homo sapiens, UniProt P04439, A114D/D185E/E176A/F33Y/L180Q/S129P/T187R); assay: ITOPIA peptide binding assay; conditions: 1.11×10^−4M of peptide
# T2 construct: purchased
# Protocol: as §1, §2
# [3] = biological target: T3, HLA B*0801 (Homo sapiens, UniProt P01889, A93T/A95T/D138N/E176V/E187T/K202T/Q94N/R180D/S35A/V36M/Y33D/Y91F); assay: ITOPIA peptide binding assay; conditions: 1.11×10^−4M of peptide
# T3 construct: purchased
# Protocol: as §1, §2
# [4] = biological target: T4, HLA A*2402 (Homo sapiens, UniProt P04439, D101N/D140Y/D185E/E176V/E190D/F33S/G103R/G107R/I119L/I121M/I306V/K335N/L105A/L180Q/L300P/N151K/N90K/Q86E/Q94H/R106L/R138H/R89G/T104I/T345S/V100E/W191G/Y123F); assay: ITOPIA peptide binding assay; conditions: 1.11×10^−4M of peptide
# Protocol: as §1, §2
# [5] = biological target: T5, HLA A*0201 (Homo sapiens, UniProt P04439, D140Y/D185E/D98H/E176V/E277Q/G131W/G231S/I119V/I121R/I166T/I218V/L300P/L318F/N151K/N90K/P208A/P217A/Q86G/Q94H/R138H/R169H/T345S); assay: ITOPIA peptide binding assay; conditions: 1.11×10^−4M of peptide
# Protocol: as §1, §2
# [6] = biological target: T6, HLA A*0301 (Homo sapiens, UniProt P04439); assay: ITOPIA peptide binding assay; conditions: 1.11×10^−4M of peptide
# T6 construct: purchased
# Protocol: as §1, §2
# [7] = biological target: T7, HLA B*1501 (Homo sapiens, UniProt P01889, A329T/A93T/A95T/C349S/D201E/D98Y/E187L/E204Q/E69M/E70A/K202T/N87E/Q94N/R155S/R180W/S121R/S35A/S48A/V306I/V36M/Y140S/Y91S); assay: ITOPIA peptide binding assay; conditions: 1.11×10^−4M of peptide
# T7 construct: purchased
# Protocol: as §1, §2
# [8] = biological target: T8, HLA B*0702 (Homo sapiens, UniProt P01889); assay: ITOPIA peptide binding assay; conditions: 1.11×10^−4M of peptide
# T8 construct: purchased
# Protocol: as §1, §2
# [9] = biological target: T1, HLA A*0101; assay: Multi-parametric analysis iScore; format: binding; design: scale not given here; conditions: index integrating t1/2 and ED50
# Protocol: (§3) Multi-parametric analysis was performed to integrate the half-life (t½) and ED50 parameters in an index (iScore). The iScore (Table 13) reflects the capability of a peptide to reconstitute with MHC molecules in a stable complex, defining its overall level of binding.
# [10] = biological target: T2, HLA A*1101; assay: Multi-parametric analysis iScore; format: binding; design: scale not given here; conditions: index integrating t1/2 and ED50
# Protocol: as §3
# [11] = biological target: T3, HLA B*0801; assay: Multi-parametric analysis iScore; format: binding; design: scale not given here; conditions: index integrating t1/2 and ED50
# Protocol: as §3
# [12] = biological target: T4, HLA A*2402; assay: Multi-parametric analysis iScore; format: binding; design: scale not given here; conditions: index integrating t1/2 and ED50
# Protocol: as §3
# [13] = biological target: T5, HLA A*0201; assay: Multi-parametric analysis iScore; format: binding; design: scale not given here; conditions: index integrating t1/2 and ED50
# Protocol: as §3
# [14] = biological target: T6, HLA A*0301; assay: Multi-parametric analysis iScore; format: binding; design: scale not given here; conditions: index integrating t1/2 and ED50
# Protocol: as §3
# [15] = biological target: T7, HLA B*1501; assay: Multi-parametric analysis iScore; format: binding; design: scale not given here; conditions: index integrating t1/2 and ED50
# Protocol: as §3
# [16] = biological target: T8, HLA B*0702; assay: Multi-parametric analysis iScore; format: binding; design: scale not given here; conditions: index integrating t1/2 and ED50
# Protocol: as §3
# [17] = biological target: T4, HLA A*2402; assay: ITOPIA off-rate assay; format: binding; conditions: 37° C., one-phase exponential decay
# Protocol: as §1
# (§4) The peptides initially identified as binders were evaluated for stability based on their ability to remain bound to MHC molecules at 37° C. at time points 0, 0.5, 1, 1.5, 2, 4, 6 and 8 hours. […] The values obtained for each time point (in duplicate) are expressed (Table 11) as a percentage of the positive control. To calculate the t1/2 and goodness-of-fit, as measured by r^2, for each peptide, a one-phase exponential decay curve, with a plateau given equal to 0, was generated using […] PRISM software.
# [18] = biological target: T5, HLA A*0201; assay: ITOPIA off-rate assay; format: binding; conditions: 37° C., one-phase exponential decay
# Protocol: as §1, §4
# [19] = biological target: T3, HLA B*0801; assay: ITOPIA off-rate assay; format: binding; conditions: 37° C., one-phase exponential decay
# Protocol: as §1, §4
# [20] = biological target: T8, HLA B*0702; assay: ITOPIA off-rate assay; format: binding; conditions: 37° C., one-phase exponential decay
# Protocol: as §1, §4
# [21] = biological target: T7, HLA B*1501; assay: ITOPIA off-rate assay; format: binding; conditions: 37° C., one-phase exponential decay
# Protocol: as §1, §4
Sequence,"level of binding, percent of positive control peptide binding [1]","level of binding, percent of positive control peptide binding [2]","level of binding, percent of positive control peptide binding [3]","level of binding, percent of positive control peptide binding [4]","level of binding, percent of positive control peptide binding [5]","level of binding, percent of positive control peptide binding [6]","level of binding, percent of positive control peptide binding [7]","level of binding, percent of positive control peptide binding [8]",iScore [9],iScore [10],iScore [11],iScore [12],iScore [13],iScore [14],iScore [15],iScore [16],A*2402 t1/2 [17],A*0201 t1/2 [18],B*1501 t1/2 [21],further results
ALFYKLDVI [compound 158],1% of positive control,1% of positive control,5% of positive control,99% of positive control,62% of positive control,14% of positive control,3% of positive control,3% of positive control,0,0,0,0.339,0.460,0,0,0,1.1 h,5.5 h,–,–
FPRIWLHGL [compound 152],0% of positive control,0% of positive control,39% of positive control,41% of positive control,9% of positive control,0% of positive control,3% of positive control,132% of positive control,0,0,0.189,0,0,0,0,0.421,–,–,–,B*0801 t1/2 [19]: 1.8 h; B*0702 t1/2 [20]: 1.1 h
CSSNITGLI [compound 154],5% of positive control,1% of positive control,6% of positive control,29% of positive control,44% of positive control,0% of positive control,40% of positive control,5% of positive control,0,0,0,0.038,0.114,0,0.112,0,1.5 h,0.4 h,3.8 h,–
CSSNITGLL [compound 69],4% of positive control,1% of positive control,4% of positive control,26% of positive control,37% of positive control,0% of positive control,30% of positive control,5% of positive control,0,0,0,0.016,0.081,0,0.067,0,1.1 h,0.3 h,3.1 h,–
